We go through 1 molecule from PMC4032265 (PLoS ONE, 2014).

For orientation: Ki means a dissociation constant, usually derived from enzyme kinetics or from competition with a known ligand. Higher therefore signals lower affinity.

Assay [1] concerns the target 5HT2B serotonergic receptor (Homo sapiens, UniProt P41595). As to the kind of experiment: PDSP radioligand binding, 5HT2B. The note with it: full concentration-response curves, n = 3-6 unless noted.
Another assay deals with sigma (σ) receptors. The note with it: cited from earlier work.
In assay [2] the target is T1, 5HT2C serotonergic receptor (Homo sapiens, UniProt P28335).
T1 sequence (P28335 33-458): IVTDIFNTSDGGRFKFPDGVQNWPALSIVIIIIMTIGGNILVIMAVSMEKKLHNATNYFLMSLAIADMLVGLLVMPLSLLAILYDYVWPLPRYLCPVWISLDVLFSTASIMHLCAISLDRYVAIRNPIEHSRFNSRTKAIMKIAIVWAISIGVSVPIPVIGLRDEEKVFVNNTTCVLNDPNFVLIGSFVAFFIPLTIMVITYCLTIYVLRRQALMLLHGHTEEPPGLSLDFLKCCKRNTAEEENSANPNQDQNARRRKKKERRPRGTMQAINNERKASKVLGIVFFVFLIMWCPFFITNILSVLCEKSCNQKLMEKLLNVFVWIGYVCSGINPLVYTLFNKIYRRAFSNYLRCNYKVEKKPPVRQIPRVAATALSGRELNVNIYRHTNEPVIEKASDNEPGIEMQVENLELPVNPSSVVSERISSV
As to the kind of experiment: PDSP radioligand binding, 5HT2C. The note with it: full concentration-response curves, n = 3-6 unless noted.

The test system of assay [3] is 41 diverse receptors, channels and a transporter. Put plainly: PDSP broad screen: summary of off-target interactions. The note with it: besides 5HT2B and 5HT2C.
In assay [4] the test system is peripheral cholecystokinin receptors. The note with it: cited from earlier work.

Chain of 5HT2B serotonergic receptor (P41595 whole entry): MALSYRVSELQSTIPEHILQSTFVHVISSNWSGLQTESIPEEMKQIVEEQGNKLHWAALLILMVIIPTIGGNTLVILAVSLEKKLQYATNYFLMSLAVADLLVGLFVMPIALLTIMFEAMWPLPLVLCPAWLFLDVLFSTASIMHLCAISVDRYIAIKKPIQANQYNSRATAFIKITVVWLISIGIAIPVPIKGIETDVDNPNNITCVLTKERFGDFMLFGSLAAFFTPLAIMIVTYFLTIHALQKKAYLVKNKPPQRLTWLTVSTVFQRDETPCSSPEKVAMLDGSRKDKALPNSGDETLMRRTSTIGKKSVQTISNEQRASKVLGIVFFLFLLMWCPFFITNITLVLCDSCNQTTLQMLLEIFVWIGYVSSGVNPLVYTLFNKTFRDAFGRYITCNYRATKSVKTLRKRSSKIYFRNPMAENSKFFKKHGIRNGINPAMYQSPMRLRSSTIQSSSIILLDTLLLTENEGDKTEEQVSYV

As to `CNC(=O)[C@H]1O[C@@H](n2cnc3c(NCc4cccc(I)c4)ncnc32)[C@H](O)[C@@H]1O` [IB-MECA, N ^6-(3-iodobenzyl)-5′-N-methylcarboxamidoadenosine], the Ki in assay [1] amounted to 1.08 µM; in assay [2] it was 5.42 µM. For the same molecule, the “binding inhibition at 10 µM” value (in the assay on sigma (σ) receptors; in assay [4]) was 50–70% in each case. Also, the “other off-target interactions in pharmacological screening” value in assay [3] is reported as “no other off-target interactions”.
